{"source": "patent US8546409B2", "about": "“Methods of treatment for solid tumors” (priority 2009, dated 2013)", "key": {"[1]": {"tested_on": "UO-31", "experiment": "NCI panel growth inhibition, UO-31", "assay_type": "cell-based", "conditions": "Homo sapiens, Renal", "source_text": "(§1) Compound I has also been tested in a battery of tumor cell assays known as the NCI panel."}, "[2]": {"tested_on": "TK-10", "experiment": "NCI panel growth inhibition, TK-10", "assay_type": "cell-based", "conditions": "Homo sapiens, Renal", "source_text": "as §1"}, "[3]": {"tested_on": "OVCAR-3", "experiment": "Tumor cell culture growth, optical density at 459 nm (FIG. 7), OVCAR-3", "assay_type": "cell-based", "conditions": "OVCAR-3, 5-10 micromolar"}, "[4]": {"tested_on": "A498 xenografts", "experiment": "Renal cancer xenografts in nu/nu mice (FIG. 9)", "assay_type": "in vivo", "conditions": "30 mg/kg BID, 20 days, female nu/nu mice", "description": "Female nu/nu mice bearing A498 xenografts (human renal cancer cells) were maintained until tumor volume measured about 100 mm^3. At that point, treatment began with compound I at a rate of 30 mg/kg administered twice per day."}, "[5]": {"conditions": "mouse", "source_text": "Bioavailability of Compound I upon oral administration is especially good; even compared to other quinazolinones of similar structures. For example, FIG. 6 illustrates that Compound I produces higher plasma concentrations of drug than another quinazolinone compound having a similar structure (Compound B). […] The degree of difference in oral bioavailability between Compound I and Compound B observed in this test is surprising.\n(§2) Treatments of the invention typically involve administration of compound Ito a subject in need of treatment on a daily basis for at least one week or more than one week, often for 2-4 weeks, and sometimes for 1-3 months or more. The half-life of Compound I in vivo in mice and rats is several hours—see FIG. 6. It is thus sometimes desirable to administer compound I in multiple doses each day, in order to maintain efficacious plasma levels over a prolonged period of time. Administration may be done in two doses per day, or three doses per day, or in some embodiments, four doses per day or more, particularly when Compound I is administered orally. Alternatively, Compound I can be administered intravenously at a rate that maintains an efficacious plasma level for a prolonged period of time. Suitably, it would be administered at a rate to achieve a plasma level of at least about 1 micromolar, or at least 3 micromolar, or at least 5 micromolar."}, "[6]": {"tested_on": "RXF 393", "experiment": "NCI panel growth inhibition, RXF 393", "assay_type": "cell-based", "conditions": "Homo sapiens, Renal", "source_text": "as §1"}, "[7]": {"tested_on": "Akt phosphorylation in OVCAR-3 (ovarian cancer)", "experiment": "Phosphorylation of Akt in OVCAR-3 cells (FIG. 4)", "assay_type": "cell-based", "conditions": "OVCAR-3, 10 micromolar", "source_text": "This distinguishes compound I from other known PI3K inhibitors in development for treatment of solid tumors, which are believed to act primarily at the p110α isoform or on p110α plus other isoforms, or even on all PI3Ks plus mTOR."}, "[8]": {"tested_on": "OVCAR-3", "experiment": "NCI panel growth inhibition, OVCAR-3", "assay_type": "cell-based", "conditions": "Homo sapiens, Ovarian", "source_text": "as §1"}, "[9]": {"tested_on": "SNB-19", "experiment": "NCI panel growth inhibition, SNB-19", "assay_type": "cell-based", "conditions": "Homo sapiens, CNS Cancer", "source_text": "as §1"}, "[10]": {"tested_on": "MDA-MB-231", "experiment": "NCI panel growth inhibition, MDA-MB-231", "assay_type": "cell-based", "conditions": "Homo sapiens, Breast Cancer", "source_text": "as §1"}, "[11]": {"biological_target": "T1, p110β (Homo sapiens, UniProt P42338)", "T1 construct": "expressed in transfected cells; host or cells: chick embryo fibroblasts (CEF), viral transduction", "T1 sequence (P42338 whole entry)": "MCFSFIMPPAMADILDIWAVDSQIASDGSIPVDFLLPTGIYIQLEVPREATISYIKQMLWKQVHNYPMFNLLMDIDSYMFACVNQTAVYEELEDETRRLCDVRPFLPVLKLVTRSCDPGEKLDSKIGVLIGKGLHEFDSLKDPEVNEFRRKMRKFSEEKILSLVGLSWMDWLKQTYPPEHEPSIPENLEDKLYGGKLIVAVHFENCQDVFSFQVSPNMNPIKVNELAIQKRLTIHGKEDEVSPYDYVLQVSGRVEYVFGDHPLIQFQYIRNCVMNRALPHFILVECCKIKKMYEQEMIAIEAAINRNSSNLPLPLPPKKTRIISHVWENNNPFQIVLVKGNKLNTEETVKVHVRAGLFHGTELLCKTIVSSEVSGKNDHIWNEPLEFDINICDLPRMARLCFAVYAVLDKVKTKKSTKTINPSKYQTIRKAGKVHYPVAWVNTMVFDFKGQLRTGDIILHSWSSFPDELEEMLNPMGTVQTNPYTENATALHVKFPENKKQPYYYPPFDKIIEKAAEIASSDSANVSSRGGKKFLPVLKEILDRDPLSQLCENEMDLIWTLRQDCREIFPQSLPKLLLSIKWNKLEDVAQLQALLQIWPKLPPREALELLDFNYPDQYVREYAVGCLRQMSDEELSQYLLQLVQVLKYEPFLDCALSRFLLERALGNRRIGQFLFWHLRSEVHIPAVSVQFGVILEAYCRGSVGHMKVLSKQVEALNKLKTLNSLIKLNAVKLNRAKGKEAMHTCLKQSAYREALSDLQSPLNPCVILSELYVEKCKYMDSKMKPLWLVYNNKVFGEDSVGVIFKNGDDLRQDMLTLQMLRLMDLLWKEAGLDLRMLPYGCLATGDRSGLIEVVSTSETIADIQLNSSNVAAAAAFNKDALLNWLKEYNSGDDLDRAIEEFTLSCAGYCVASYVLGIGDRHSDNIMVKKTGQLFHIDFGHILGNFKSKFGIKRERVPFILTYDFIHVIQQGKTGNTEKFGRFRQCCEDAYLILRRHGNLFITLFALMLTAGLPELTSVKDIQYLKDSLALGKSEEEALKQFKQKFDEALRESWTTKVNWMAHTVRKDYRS", "experiment": "Chick embryo fibroblast (CEF) transformation assay, p110β", "assay_type": "cell-based", "conditions": "read-out: EC-50 for inhibition of functional activity of p110β", "source_text": "(§3) Moreover, compound I has comparatively low activity on p110α in a cell-transformation system designed to measure functional activity of these kinases, but is a potent inhibitor of both p110β and p110δ in that assay. See Example 1. This chick embryo fibroblast (CEF) transformation system has been reported as a useful way to assess the functional activity of the PI3K signaling pathway. Denley, et al., “Oncogenic signaling of class I PI3K isoforms,” Oncogene, vol. 27(18), 2561-74 (2008). Transformation of CEF cells in the assay depends upon functional kinase activity. Kang, et al., Proc. Nat'l Acad. Sci. USA, vol. 103(5), 1289-94 (2006). The readout of this assay is based on the frequency of transformation of CEF cells exposed to viral vectors carrying a specific p110 isoform of interest.\n(§4) Chick embryo fibroblasts (CEF) are transduced with viral stocks with versions of the human genes for the individual PI3K isoforms p110α, p110β, p110δ and p110γ. These transduced CEF lines are then plated in a growth medium where oncogenically transformed cells form foci that can then be stained and counted. […] Denley A, Kang S, Karst U and Vogt PK, “Oncogenic signaling of class 1 PI3K isoforms.” Oncogene (2008) 27: 2561-2574. FIG. 3 illustrates the readout of this assay."}, "[12]": {"experiment": "Half-life in vivo in rats", "source_text": "as §2"}, "[13]": {"biological_target": "T2, p110δ (Homo sapiens, UniProt O00329)", "T2 construct": "expressed in transfected cells; host or cells: chick embryo fibroblasts (CEF), viral transduction", "T2 sequence (O00329 whole entry)": "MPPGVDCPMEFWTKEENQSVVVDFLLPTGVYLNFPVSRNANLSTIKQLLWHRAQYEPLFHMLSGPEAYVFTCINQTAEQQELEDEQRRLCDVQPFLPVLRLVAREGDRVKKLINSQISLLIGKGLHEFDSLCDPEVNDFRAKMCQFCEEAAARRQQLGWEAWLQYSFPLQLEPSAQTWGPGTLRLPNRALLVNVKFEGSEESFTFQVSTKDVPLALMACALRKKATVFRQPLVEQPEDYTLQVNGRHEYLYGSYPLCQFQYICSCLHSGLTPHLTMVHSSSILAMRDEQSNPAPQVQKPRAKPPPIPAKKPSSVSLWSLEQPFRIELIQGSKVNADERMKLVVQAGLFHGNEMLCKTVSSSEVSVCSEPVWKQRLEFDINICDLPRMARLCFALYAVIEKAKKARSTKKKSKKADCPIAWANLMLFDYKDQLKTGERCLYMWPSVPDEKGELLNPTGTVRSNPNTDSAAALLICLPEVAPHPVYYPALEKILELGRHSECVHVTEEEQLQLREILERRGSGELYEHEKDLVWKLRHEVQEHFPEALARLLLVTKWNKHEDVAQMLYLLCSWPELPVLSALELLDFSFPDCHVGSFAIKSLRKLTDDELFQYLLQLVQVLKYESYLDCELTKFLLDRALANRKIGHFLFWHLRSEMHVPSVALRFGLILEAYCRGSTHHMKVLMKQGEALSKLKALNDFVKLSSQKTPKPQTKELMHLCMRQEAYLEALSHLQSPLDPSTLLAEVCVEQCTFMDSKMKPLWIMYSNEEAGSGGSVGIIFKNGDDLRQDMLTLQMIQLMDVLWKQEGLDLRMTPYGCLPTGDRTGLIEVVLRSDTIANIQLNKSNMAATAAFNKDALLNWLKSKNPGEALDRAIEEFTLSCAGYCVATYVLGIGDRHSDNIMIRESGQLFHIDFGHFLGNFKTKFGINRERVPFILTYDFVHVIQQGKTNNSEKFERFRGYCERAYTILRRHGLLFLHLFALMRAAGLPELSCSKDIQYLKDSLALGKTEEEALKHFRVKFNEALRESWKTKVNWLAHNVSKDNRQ", "experiment": "Chick embryo fibroblast (CEF) transformation assay, p110δ", "assay_type": "cell-based", "conditions": "read-out: EC-50 for inhibition of functional activity of p110δ", "source_text": "as §3, §4"}}, "note": "Where “and” joins values, the source holds several entries; their conditions need not be identical. Identical values can stand only once. Entries after “also recorded” stand apart in the source; their conditions may differ. Like-named read-outs stand apart in the source and are kept apart here."}
{"smiles": "C[C@H](Nc1ncnc2[nH]cnc12)c1nc2ccc(F)cc2c(=O)n1-c1ccccc1", "note": "[Compound I]", "values": [{"measurement": "GI50", "setting": "[1]", "value": 2010, "unit": "nM"}, {"measurement": "GI50", "setting": "[2]", "value": 1240, "unit": "nM"}, {"measurement": "Inhibition of tumor cell culture growth", "setting": "[3]", "value": "strong inhibition of growth"}, {"measurement": "Tumor volume of A498 xenograft", "setting": "[4]", "value": "significantly inhibited growth; also recorded: tumor volume approximately doubled"}, {"measurement": "Tumor volume of A498 xenograft", "setting": "[4]; listed as compound I", "value": "significant reduction in tumor growth"}, {"measurement": "Half-life in vivo", "setting": "[5]", "value": "several hours"}, {"measurement": "Peak plasma level compared to Compound B", "setting": "[5]; in vivo, po", "value": "higher peak plasma level"}, {"measurement": "Plasma level maintained for several hours", "setting": "[5]; in vivo, po, 20 mg/kg", "value": "about 500 ng/mL"}, {"measurement": "GI50", "setting": "[6]", "value": 1140, "unit": "nM"}, {"measurement": "Phosphorylation of Akt", "setting": "[7]", "value": "inhibits phosphorylation of Akt"}, {"measurement": "GI50", "setting": "[8]", "value": 316, "unit": "nM"}, {"measurement": "GI50", "setting": "[9]", "value": 19300, "unit": "nM"}, {"measurement": "GI50", "setting": "[10]", "value": 100000, "unit": "nM"}, {"measurement": "EC50", "setting": "[11]", "value": "150 nM and ~150 nM"}, {"measurement": "Half-life in vivo", "setting": "[12]", "value": "several hours"}, {"measurement": "EC50", "setting": "[13]", "value": "~15", "unit": "nM"}]}
